Test results taken from patent publication US20250228239A1, “MOLECULES HAVING PESTICIDAL UTILITY, AND INTERMEDIATES, COMPOSITIONS, AND PROCESSES, RELATED THERETO” (priority 2024, published 2025).
Read-outs that look alike come from different tables or passages of the source.

Legend:
Type in all cases: in vivo
[1] = test system: Beet Armyworm (Spodoptera exigua, LAPHEG); test: Bioassays on Beet Armyworm (BAW), 128-well diet tray assay; details: Spodoptera exigua
How it was run: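 Mortality of second-instar larvae (1–5/well) on artificial diet treated with 50 μg/cm^2 compound, read after 5–7 days at 25° C.; values are means of eight wells.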

[2] = test system: Cabbage Looper (Trichoplusia ni, TRIPNI); test: Bioassays on Cabbage Looper (CL), 128-well diet tray assay; details: Trichoplusia ni
How it was run: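 Each of eight wells receives artificial diet treated at 50 μg/cm^2 with the test molecule, then one to five second-instar larvae. Incubation runs five to seven days at 25° C with a 14:10 light-dark cycle under vented covers. Mortality is scored per well as a percentage and averaged.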

[3] = test system: Yellow Fever Mosquito (Aedes aegypti, AEDSAE); details: for YFM rating: Table ABC / ABC-DP rating
How it was run: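 Rating-scale grades reflect larval mortality scored per well after 3 days at room temperature under non-evaporative lids. Larvae (~1 day old, hatched overnight in liver-powder water) were added to six daughter plates per compound, prepared from a 4000 ppm DMSO stock diluted in 90:10 water/acetone.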

[4] = Beet Armyworm, rating class, read-out: BAW
[5] = Cabbage Looper, rating class, read-out: CL
[6] = Yellow Fever Mosquito, rating class
[7] = Beet Armyworm, Table ABC / ABC-DP rating, read-out: BAW rating
[8] = Cabbage Looper, Table ABC / ABC-DP rating, read-out: CL rating
[9] = Table ABC: Biological Results, species BAW, read-out: BAW
[10] = Table ABC: Biological Results, species CL, read-out: CL
[11] = Table ABC: Biological Results, species YFM

Compound	pest or weed control at 50 µg/cm2 [1, 4] [%]	pest or weed control at 50 µg/cm2 [2, 5] [%]	YFM [3, 6]	pest or weed control at 50 µg/cm2 [1, 7] [%]	pest or weed control at 50 µg/cm2 [2, 8] [%]	YFM rating ([3]; Yellow Fever Mosquito)	pest or weed control at 50 µg/cm2 [1, 9] [%]	pest or weed control at 50 µg/cm2 [2, 10] [%]	YFM [3, 11]
CC(CC(=O)Nc1c(F)ccc(NC(=O)c2cc(NC(=O)[C@H]3[C@H](c4ccc(F)c(C(F)(F)F)c4)C3(Cl)Cl)ccc2Cl)c1F)C(F)(F)F (stereo partly drawn) [F1760, 2-Chloro-5-((1R,3R)-2,2-dichloro-3-(4-fluoro-3-(trifluoromethyl)phenyl)cyclopropane-1-carboxamido)-N-(2,4-difluoro-3-(4,4,4-trifluoro-3-methylbutanamido)phenyl)benzamide]	50 to 100	50 to 100	A (80–100)	–	–	–	–	–	–
CC(=O)Nc1cc(F)ccc1NC(=O)c1cc(NC(=O)[C@H]2[C@H](c3cc(Cl)cc(Cl)c3)C2(Cl)Cl)ccc1Cl (relative stereo) [F1637, trans-N-(2-Acetamido-4-fluorophenyl)-2-chloro-5-(2,2-dichloro-3-(3,5-dichlorophenyl)cyclopropane-1-carboxamido)benzamide]	50 to 100	50 to 100	B (More than 0 – Less than 80)	–	–	–	–	–	–
O=C(NNCCC(F)(F)F)c1cc(NC(=O)[C@H]2[C@H](c3cc(Cl)cc(Cl)c3)C2(Cl)Cl)ccc1Cl (relative stereo) [F2550, trans-2,2-Dichloro-N-(4-chloro-3-(2-(3,3,3-trifluoropropyl)hydrazine-1-carbonyl)phenyl)-3-(3,5-dichlorophenyl)cyclopropane-1-carboxamide]	–	–	–	0 to 50	50 to 100	B (More than 0 – Less than 80)	–	–	–
O=C(Nc1c(F)ccc(NC(=O)c2cc(NC(=O)[C@H]3[C@H](c4ccc(Cl)c(Cl)c4)C3(Cl)Cl)ccc2Cl)c1F)c1ccco1 [F1416, N-(3-(2-Chloro-5-((1R,3R)-2,2-dichloro-3-(3,4-dichlorophenyl)cyclopropane-1-carboxamido)benzamido)-2,6-difluorophenyl)furan-2-carboxamide]	50 to 100	50 to 100	A (80–100)	–	–	–	–	–	–
Nc1c(F)ccc(NC(=O)c2cc(NC(=O)[C@H]3[C@H](c4cc(Br)cc(S(F)(F)(F)(F)F)c4)C3(Cl)Cl)ccc2Cl)c1F (relative stereo) [F1042, trans-N-(3-Amino-2,4-difluorophenyl)-5-(3-(3-bromo-5-(pentafluoro-λ^6-sulfanyl)phenyl)-2,2-dichlorocyclopropane-1-carboxamido)-2-chlorobenzamide]	–	–	–	–	–	–	50 to 100	50 to 100	A (80–100)
COc1c(F)cc(NC(=O)[C@H]2[C@H](c3ccc(F)c(Cl)c3)C2(Cl)Cl)cc1C(=O)NCC(F)(F)C(F)(F)F (relative stereo) [F2060, trans-5-(2,2-Dichloro-3-(3-chloro-4-fluorophenyl)cyclopropane-1-carboxamido)-3-fluoro-2-methoxy-N-(2,2,3,3,3-pentafluoropropyl)benzamide]	–	–	–	50 to 100	50 to 100	A (80–100)	–	–	–
O=C(Nc1ccc(F)cc1)c1cc(NC(=O)[C@H]2[C@H](c3ccc(F)c(Cl)c3)C2(Cl)Cl)cc(C(F)(F)F)c1Cl (relative stereo) [F1214, trans-2-Chloro-5-(2,2-dichloro-3-(3-chloro-4-fluorophenyl)cyclopropane-1-carboxamido)-N-(4-fluorophenyl)-3-(trifluoromethyl)benzamide]	–	–	–	–	–	–	50 to 100	50 to 100	A (80–100)
O=C(Nc1ccc(F)cc1F)c1cc(NC(=O)[C@H]2[C@H](c3cc(Cl)c(Br)c(Cl)c3)C2(Cl)Cl)ccc1Cl (relative stereo) [F1006, trans-5-(3-(4-Bromo-3,5-dichlorophenyl)-2,2-dichlorocyclopropane-1-carboxamido)-2-chloro-N-(2,4-difluorophenyl)benzamide]	–	–	–	–	–	–	50 to 100	50 to 100	A (80–100)
O=C(NNC(=O)c1cc(NC(=O)[C@H]2[C@H](c3cc(Cl)cc(Cl)c3)C2(Cl)Cl)ccc1Cl)c1ccccc1 (relative stereo) [F2519, trans-N-(3-(2-Benzoylhydrazine-1-carbonyl)-4-chlorophenyl)-2,2-dichloro-3-(3,5-dichlorophenyl)cyclopropane-1-carboxamide]	–	–	–	50 to 100	50 to 100	A (80–100)	–	–	–
C=Cc1cc(NC(=O)c2cc(NC(=O)[C@H]3[C@H](c4cc(Cl)cc(Cl)c4)C3(Cl)Cl)ccc2Cl)c(F)cc1F (relative stereo) [F1315, trans-2-Chloro-5-(2,2-dichloro-3-(3,5-dichlorophenyl)cyclopropane-1-carboxamido)-N-(2,4-difluoro-5-vinylphenyl)benzamide]	–	–	–	–	–	–	50 to 100	50 to 100	A (80–100)
O=C(NCCCCl)c1c(F)ccc(NC(=O)[C@H]2[C@H](c3ccc(F)c(Cl)c3)C2(Cl)Cl)c1F (relative stereo) [F2028, trans-N-(3-Chloropropyl)-3-(2,2-dichloro-3-(3-chloro-4-fluorophenyl)cyclopropane-1-carboxamido)-2,6-difluorobenzamide]	–	–	–	50 to 100	50 to 100	A (80–100)	–	–	–
O=C(Nc1cc(NC(=O)C(F)(F)F)c(F)cc1F)c1cc(NC(=O)[C@H]2[C@H](c3cc(Cl)c(Cl)c(Cl)c3)C2(Cl)Cl)ccc1F [F1551, 5-((1R,3R)-2,2-Dichloro-3-(3,4,5-trichlorophenyl)cyclopropane-1-carboxamido)-N-(2,4-difluoro-5-(2,2,2-trifluoroacetamido)phenyl)-2-fluorobenzamide]	50 to 100	50 to 100	A (80–100)	–	–	–	–	–	–
O=C(NCC(F)(F)F)c1cc(NC(=O)[C@H]2[C@H](c3c(F)c(F)c(F)c(F)c3F)C2(Cl)Cl)ccc1Cl (relative stereo) [F2002, trans-2-Chloro-5-(2,2-dichloro-3-(perfluorophenyl)cyclopropane-1-carboxamido)-N-(2,2,2-trifluoroethyl)benzamide]	–	–	–	50 to 100	50 to 100	A (80–100)	–	–	–
Nc1cc(NC(=O)c2cc(NC(=O)[C@H]3[C@H](c4ccc(F)c(Cl)c4)C3(Cl)Cl)ccc2Cl)ccc1Cl (relative stereo) [F1365, trans-N-(3-Amino-4-chlorophenyl)-2-chloro-5-(2,2-dichloro-3-(3-chloro-4-fluorophenyl)cyclopropane-1-carboxamido)benzamide]	–	–	–	–	–	–	50 to 100	50 to 100	A (80–100)
Cc1c(N)ccc(NC(=O)c2cc(NC(=O)[C@H]3[C@H](c4ccc(F)c(C(F)(F)F)c4)C3(Cl)Cl)ccc2Cl)c1C [F1389, N-(4-Amino-2,3-dimethylphenyl)-2-chloro-5-((1R,3R)-2,2-dichloro-3-(4-fluoro-3-(trifluoromethyl)phenyl)cyclopropane-1-carboxamido)benzamide]	–	–	–	–	–	–	50 to 100	50 to 100	A (80–100)
O=C(CC(F)(F)F)Nc1c(F)ccc(NC(=O)c2cc(NC(=O)[C@H]3[C@H](c4cc(Cl)c(Cl)c(Cl)c4)C3(Cl)Cl)ccc2Cl)c1F [F1651, 2-Chloro-5-((1R,3R)-2,2-dichloro-3-(3,4,5-trichlorophenyl)cyclopropane-1-carboxamido)-N-(2,4-difluoro-3-(3,3,3-trifluoropropanamido)phenyl)benzamide]	50 to 100	50 to 100	A (80–100)	–	–	–	–	–	–
